# Paper PMC8910649, “An Efficient Way to Screen Inhibitors of Energy-Coupling Factor (ECF) Transporters in a Bacterial Uptake Assay” (International Journal of Molecular Sciences, 2022)
# Where two headings read alike, the source gives them in different places.
# How the values were obtained:
# [1] = test system: ECF FolT2 transporter; details: cited from earlier work
# [2] = test system: ECF FolT transporter; assay: Bacterial (whole-cell) folate uptake assay in L. casei; details: for Inhibition at 200 μM: folate import
# Description: The OD600 was measured in a Nanodrop 2000c spectrophotometer (Thermo Fisher Scientific, Waltham, MA, USA) using half-micro cuvettes. The culture was diluted to OD600 = 0.06 in 25 mL and grown under the same conditions as before for 16 h. The new overnight culture was diluted to OD600 = 0.4 in 25 mL MRS medium and regrown in a 50 mL reaction tube for 2 h under the same conditions. The culture was subsequently centrifuged, washed with 50 mL PBS (50 mM, pH 7.4), centrifuged again, and resuspended in citrate buffer (20 mM, pH 6, 2% D-Glucose, 8 g/L NaCl, 0.2 g/L KCl) while adjusting the OD600 to 0.5. Then, 185 μL of this cell suspension was subsequently distributed on an opaque MultiScreen HTS Filter Plate-GV (Merck KGaA, Darmstadt, Germany). For each plate, two wells containing buffer for blank determination were included. A stock solution of compounds in DMSO (10 μL) was added to the wells and mixed (final DMSO conc. = 5%), followed by a preincubation at RT for 10 min. The solubility of the compounds in citrate buffer was verified in 96-well plates. Poorly soluble compounds were tested at the highest possible concentration. In addition, for each plate, four negative controls containing DMSO instead of inhibitor and a positive control were included. Tritium-labeled folic acid (Moravek Biochemicals, Brea, CA, USA) (5 μL, 2 μM, radioactivity was adjusted to 12.7 Ci/mmol using unlabeled folic acid) was added to the wells leading to a final concentration of 50 nM. The solutions were mixed (final volume 200 μL) as before, and the plate was incubated in a preheated incubator at 30 °C for 30 min. The plate was covered with sealing tape during the incubation steps to avoid evaporation. To stop the reaction, the liquid in the filter plates was removed from the cells by centrifugation (3 min at 1500× g). Subsequently, the cells were washed twice with PBS (10 mM, pH 7.2), followed by centrifugation steps (3 and 5 min at 1500× g). After removal of the underdrain, residual liquid on the bottom of the filters was removed using lint-free paper towels and the plate was dried at 50 °C in the incubator. After 10 min, 30 μL of liquid scintillating fluid was added into each well, the plate was covered with sealing tape and gently vortexed for 5 min. Relative radioactivity was determined for 1 min each well in a Wallac MicroBeta TriLux BetaCounter (Perkin Elmer, Waltham, MA, USA). […] Counts were averaged and after subtraction of the blank, the percentage of inhibition was determined by the following formula: Inh. %=100-x inhibitor/x negative control×100 The data were plotted including standard deviations. IC50 values were determined by plotting percentages of inhibition against the related concentrations and fitting the Origin standard function “Hill1” to the data. The KM was determined by plotting the relative radioactivity against the folic acid concentration and fitting the Origin standard function “Hyperbl” to the data.
# [3] = Solubility of the compounds in citrate buffer (assay conditions); format: physicochemical
# Description: The data were analyzed by using OriginPro 2018G (OriginLab Corporation, Northampton, MA, USA).
# [4] = test system: Staphylococcus aureus str. Newman; assay: Antibacterial testing (MIC); format: cell-based; details: not auxotrophic
# Description: (§1) Figure S12. Screening a broad library (4−22) against ECF FolT2 transporter in the L. casei bacterial assay. Compou nds colored i n blue s howed inhibiti on bi gger than 20% when tested at 500 µ M.
# (§2) Compounds were prepared as DMSO stocks a nd minimum inhibitory concentrations (MIC) were determined as de-scribed elsewhere. Bacteria were handled according to standard procedures and w ere obtained from the Ger man Col-lection of M icroorganisms and Cell Cultures (DSMZ) or were part of our interna l strain collection. In brief, bacterial cultures were diluted in Tryptic Soy Broth (TSB; 1.7% pepto ne casein, 0.3% peptone soymeal, 0.25% glucose, 0.5% NaCl, 0.25% K2HPO4; pH 7.3) or Müller– Hinton br oth (0.2% beef infusion solids, 1.75% casein hydr olysate, 0.15% starch, pH 7.4) to achieve a final inoculum of approximately 10 4 to 105 cfu/mL. Compou nd s were tested in serial dilution (0.06– […]
# (§3) Organisms FolT EcfT EcfA1 EcfA2 Figure S13:
# (§4) Lactobacillus delbrueckii A0A061BSU4 Q1GBJ0 Q1GBI9 numbers of the […]
# (§5) Lactobacillus casei transporter (FolT,
# [5] = test system: Streptococcus pneumoniae DSM-11865 (PRSP); assay: Antibacterial testing (MIC); format: cell-based; details: auxotrophic
# Description: as §1, §2, §3, §4, §5
# [6] = test system: Streptococcus pneumoniae DSM-20566; assay: Antibacterial testing (MIC); format: cell-based; details: DSM20566; Streptococcus pneumoniae DSM-20566, auxotrophic
# Description: as §1, §2, §3, §4, §5
smiles,measurement,setting,value
O=C(O)CNCc1ccc(-c2ccc(Cl)cc2)o1 [Compound 2],IC50,"[1]; proteoliposome uptake (in vitro assay, L. delbrueckii)",> 1200 µM
same,inhibition of folic acid uptake: inactive up to,[2]; bacterial uptake assay L. casei,> 1.2 mM
O=C(O)c1cccc(NCc2ccc(-c3cccc(Cl)c3)o2)c1 [Compound 25],Inhibition at 200 μM,[2]; L. casei based uptake assay,41%
O=C(O)c1ccccc1NCc1ccc(-c2ccc(Cl)cc2)o1 [Compound 23],solubility under the conditions of the assay,[3],insoluble
same,solubility,"[3]; citrate buffer with 5% DMSO, 96-well plates, pH 6, aqueous with cosolvent or surfactant or cyclodextrin, kinetic from dmso stock, citrate buffer, read-out: solubility limit (not soluble above)",≤ 50 µM
same,Inhibition at 50 µM,"[2]; 50 µM (not soluble above 50 μM), L. casei based uptake assay",11% at 50 µM
"O=C(O)c1cc(OCc2cccc3ccccc23)ccc1O [Compound 1, reference compound]",IC50,"[1]; uptake into proteoliposomes, ECF FolT2 from L. delbrueckii",282 ± 108 µM
O=C(O)c1cccc(NCc2ccc(-c3ccccc3Cl)o2)c1 [Compound 26],Inhibition at 200 μM,[2]; L. casei based uptake assay,36%
Nc1nc(=O)c2nc(CNc3ccc(C(=O)N[C@@H](CCC(=O)O)C(=O)O)cc3)cnc2[nH]1 [folic acid],Km,"[2]; read-out: KM of folate uptake, substrate-dependent folate uptake in L. casei, PBS (50 mM, pH 7.4, 2% Glucose)",0.049 µM
same,Vmax of folate uptake,"[2]; substrate-dependent folate uptake in L. casei, PBS (50 mM, pH 7.4, 2% Glucose)",83 (±2) counts per minute (cpm)
O=C(O)c1cccc(NCc2ccc(-c3ccc(Cl)cc3)o2)c1 [Compound 3],MIC,[4],23 µg/mL
same,MIC,[5],10 µg/mL
same,MIC,[6],21 µg/mL
same,Inhibition at 200 μM,[2]; L. casei based uptake assay,43% (IC50 = 204 ± 22 μM)
same,IC50,"[2]; bacterial uptake assay, L. casei, 50 nM radiolabeled folic acid",204 ± 22 µM
O=C(O)c1cccc(NCc2cc(-c3ccc(Cl)cc3)co2)c1 [Compound 27],Inhibition at 200 μM,[2]; L. casei based uptake assay,8%
O=C(O)c1ccc(NCc2ccc(-c3ccc(Cl)cc3)o2)cc1 [Compound 24],Inhibition at 500 μM,"[2]; 500 μM, L. casei based uptake assay",n.i at 500 μM (n.i. = no inhibition (if inhibition < 10%))
same,inhibition,"[2]; up to 500 μM, L. casei uptake assay",no inhibition
